According to ChEMBL document CHEMBL5226321, “Ivermectin: A Promising Therapeutic for Fighting Malaria. Current Status and Perspective” (J Med Chem, 2021):

Assays:
[1] = test system: Aedes albopictus; assay: Insecticidal in Aedes albopictus assessed as mortality rate membrane-fed with compound treated human blood at 10 to 100 microg/mL observed within 7 days relative to control; format: functional, organism-based; settings: dose 10-100 µg/ml, time 7.0 day
[2] = test system: Aedes aegypti; assay: Insecticidal in Aedes aegypti larvae measured after 48 hrs; format: functional
[3] = test system: Anopheles sp.; assay: In vivo Insecticidal in Anopheles sp. assessed as lethality membrane-fed with compound treated human blood at 400 microg/kg per day in presence of combination of 120 mg dihydroartemisinin, 960 mg piperaquine and 30 mg primaquine observed after 7 days; format: functional, organism-based; settings: dose 400.0 µg/kg, time 7.0 day
[4] = test system: Anopheles sp.; assay: Insecticidal in Anopheles sp. infected with Plasmodium vivax assessed as mortality rate fed with blood isolated from compound treated human at 200 microg/kg observed for 5 days; format: functional, organism-based; settings: dose 200.0 µg/kg, time 5.0 day
[5] = test system: Anopheles sp.; assay: Insecticidal in Anopheles sp. infected with Plasmodium falciparum gametocytes assessed as reduction in fecundity fed with compound treated bovine blood at 200 microg/kg feeding at 21 days after injection relative to control; format: functional, organism-based; design: scale not given: the % may be the effect or the level left; settings: dose 200.0 µg/kg
[6] = test system: Aedes aegypti; assay: Insecticidal in Aedes aegypti assessed as mortality rate fed with blood of compound treated mouse at 83 mg/kg, sc before 12 hrs and observed after 36 hrs relative to control; format: functional, organism-based
[7] = test system: Anopheles darlingi; assay: Insecticidal in Anopheles darlingi infected with Plasmodium vivax assessed as mortality rate midgut fed with blood isolated from compound treated parasite-infected human observed after 7 days relative to control; format: functional, organism-based; settings: time 7.0 day
[8] = test system: Anopheles sp.; assay: Insecticidal in Anopheles sp. infected with Plasmodium falciparum gametocytes assessed as reduction in fecundity fed with compound treated bovine blood at 200 microg/kg feeding at 28 days after injection relative to control; format: functional, organism-based; design: scale not given: the % may be the effect or the level left; settings: dose 200.0 µg/kg
[9] = test system: Anopheles arabiensis; assay: Insecticidal in Anopheles arabiensis assessed as percentage of mortality in 10 day survivorship fed with compound treated bovine blood at 73 mg observed for 24 weeks relative to control; format: functional, organism-based
[10] = test system: Anopheles sp.; assay: Insecticidal in Anopheles sp. assessed as mortality rate fed with blood of compound treated dog at 10 to 2500 microg/kg observed after 48 hrs relative to control; format: functional, organism-based; settings: dose 10-2500 µg/kg
[11] = test system: Culex pipiens; assay: Insecticidal in Culex pipiens larvae measured after 48 hrs; format: functional
[12] = test system: Anopheles sp.; assay: Insecticidal in Anopheles sp. assessed as mortality fed with treated bovine blood containing 1% of compound observed within 4 days after a blood meal on 7 days post treatment relative to control; format: functional, organism-based; settings: time 4.0 day
[13] = test system: Anopheles sp.; assay: Insecticidal in Anopheles sp. assessed as lethal concentration membrane-fed with compound treated blood observed after 4 days; format: functional, organism-based; settings: time 4.0 day
[14] = test system: Anopheles arabiensis; assay: Insecticidal in Anopheles arabiensis assessed as reduction in survival rate fed with blood of compound treated human observed for […] relative to control; format: functional, organism-based
[15] = test system: Aedes aegypti; assay: Insecticidal in Aedes aegypti assessed as reduction in survivorship fed with blood of compound treated human at 150 microg/kg administered once; format: functional, organism-based; settings: dose 150.0 µg/kg
[16] = test system: Aedes aegypti; assay: Insecticidal in Aedes aegypti assessed as mortality rate membrane-fed with compound treated human blood at 10 to 100 microg/mL observed within 7 days relative to control; format: functional, organism-based; settings: dose 10-100 µg/ml, time 7.0 day
[17] = test system: Anopheles sp.; assay: In vitro Insecticidal in Anopheles sp. assessed as lethality membrane-fed with compound treated human blood at 400 microg/kg per day in presence of combination of 120 mg dihydroartemisinin, 960 mg piperaquine and 30 mg primaquine observed after 7 days; format: functional, organism-based; settings: dose 400.0 µg/kg, time 7.0 day
[18] = test system: Plasmodium vivax; assay: Antimalarial activity against Plasmodium vivax assessed as reduction in […] in Anopheles darlingi mosquito fed with blood containing plasma isolated from compound treated human observed after 4 days relative to control; format: functional, organism-based; settings: time 4.0 day, dose or concentration not given here
[19] = test system: Anopheles sp.; assay: Insecticidal in Anopheles sp. infected with Plasmodium falciparum gametocytes assessed as reduction in survival fed with compound treated bovine blood at 200 microg/kg feeding at 2 days after injection relative to control; format: functional, organism-based; settings: dose 200.0 µg/kg
[20] = test system: Anopheles sp.; assay: Insecticidal in Anopheles sp. assessed as mortality rate fed with compound treated human blood at 400 microg/kg observed in 48 hrs relative to control; format: functional, organism-based; settings: dose 400.0 µg/kg
[21] = test system: Anopheles minimus; assay: Insecticidal in Anopheles minimus assessed as lethal concentration membrane-fed with compound treated human blood at 200 microg/kg observed for 7 days; format: functional, organism-based; settings: dose 200.0 µg/kg, time 7.0 day
[22] = test system: Anopheles sp.; assay: Insecticidal in Anopheles sp. assessed as number of eggs per female fed with compound treated human blood administered as a single dose at 10 microg/ml fed at 4 hrs post treatment; format: functional, organism-based; settings: dose 10.0 µg/ml
[23] = test system: Anopheles sp.; assay: Insecticidal in Anopheles sp. assessed as mortality fed with treated bovine blood containing 1% of compound observed within 4 days after a blood meal on 2 days post treatment relative to control; format: functional, organism-based; settings: time 4.0 day
[24] = test system: Plasmodium berghei; assay: In vivo antimalarial activity against liver stage Plasmodium berghei infected in mouse assessed as increase in mouse survival days at 10 mg/kg; format: functional, organism-based
[25] = test system: Anopheles minimus; assay: In vitro Insecticidal in Anopheles minimus assessed as lethality membrane-fed with compound treated human blood at 400 microg/kg per day in presence of combination of 120 mg dihydroartemisinin, 960 mg piperaquine and 30 mg primaquine observed after 7 days; format: functional, organism-based; settings: dose 400.0 µg/kg, time 7.0 day
[26] = test system: Anopheles sp.; assay: Insecticidal in Anopheles sp. infected with Plasmodium falciparum gametocytes assessed as mortality fed with compound treated bovine blood at 200 microg/kg observed within 4 days feeding at 7 days post treatment relative to control; format: functional, organism-based; settings: dose 200.0 µg/kg, time 4.0 day
[27] = test system: Plasmodium vivax; assay: Antimalarial activity against Plasmodium vivax assessed as reduction in […] in Anopheles sp. mosquito fed with blood containing plasma isolated from compound treated human observed after 4 days relative to control; format: functional, organism-based; settings: time 4.0 day, dose or concentration not given here
[28] = test system: Anopheles arabiensis; assay: Insecticidal in Anopheles arabiensis assessed as mortality fed with compound treated bovine blood at 200 microg/kg observed within 2 to 4 days after blood feeding relative to control; format: functional, organism-based; settings: dose 200.0 µg/kg, time 2-4 day
[29] = test system: Anopheles sp.; assay: Insecticidal in Anopheles sp. assessed as percentage survival fed with blood of compound treated human at 250 microg/kg administered once and observed for 3 days relative to control; format: functional, organism-based; settings: dose 250.0 µg/kg, time 3.0 day
[30] = test system: Anopheles stephensi; assay: Insecticidal in Anopheles stephensi assessed as mortality rate fed with blood of compound treated mouse at […], sc before 12 hrs and observed after 36 hrs relative to control; format: functional, organism-based
[31] = test system: Anopheles sp.; assay: Insecticidal in Anopheles sp. assessed as mean plasma concentration causing death within 2-4 days fed with compound treated pig blood administered as a single dose at 600 microg/kg at 1 day post treatment observed within 2 to 4 days; format: functional, organism-based; settings: dose 600.0 µg/kg, time 2-4 day, pooled result: one value given for 4 cell lines, strains, targets or settings
[32] = test system: Anopheles gambiae; assay: Insecticidal in Anopheles gambiae assessed as probability of survival per day fed with blood of compound treated human at 150 microg/kg observed for 6 days relative to control; format: functional, organism-based; settings: dose 150.0 µg/kg, time 6.0 day
[33] = test system: Anopheles darlingi; assay: Insecticidal in Anopheles darlingi infected with Plasmodium vivax assessed as lethal concentration fed with compound treated human blood observed for 7 days; format: functional, organism-based; settings: time 7.0 day
[34] = test system: Anopheles sp.; assay: Insecticidal in Anopheles sp. assessed as mortality relative to control; format: functional, organism-based
[35] = test system: Anopheles sp.; assay: Insecticidal in Anopheles sp. infected with Plasmodium falciparum gametocytes assessed as reduction in survival fed with compound treated bovine blood at 200 microg/kg feeding at 15 days after injection relative to control; format: functional, organism-based; settings: dose 200.0 µg/kg

Sequence: IVERMECTIN
- mortality [1]: 100%
- LC50 [2]: 23.4 ppb
- LC50 [3]: 0.00286 µg/mL
- mortality [4]: 50%
- Activity [5]: 33%
- mortality [6]: 60%
- mortality [7]: 97.1%
- Activity [8]: 20%
- mortality [9]: 90%
- mortality [10]: 90%
- LC50 [11]: 3.94 ppb
- mortality [12]: 80%
- LC50 [13]: 1.47 µg/mL
- Survival [14]: 50%
- LC50 [15]: 0.601 µg/mL
- mortality [16]: 100%
- LC50 [17]: 0.0576 µg/mL
- inhibition [18]: 99.9%
- Survival [19]: 86%
- mortality [20]: 69%
- LC50 [21]: 0.0264 µg/mL
- Activity [22]: 22.4
- mortality [23]: 60%
- Survival [24]: 10 days
- LC50 [25]: 0.0147 µg/mL
- mortality [26]: 100%
- inhibition [27]: 99.9%
- mortality [28]: 80%
- Survival [29]: 20%
- mortality [30]: 100%
- Cp [31]: 15.3 ng/mL
- Survival [32]: > 10%
- LC5 [33]: 14.8 ng/mL
- LC25 [33]: 0.0278 µg/mL
- LC50 [33]: 0.0432 µg/mL
- mortality [34]: 90%
- Survival [35]: 77%
